The source made the active and inactive calls.
Columns and labels:
[1] = system: Human immunodeficiency virus type 1 reverse transcriptase (Human immunodeficiency virus 1), Q72547 [Y181I]; experiment: Inhibition of HIV1 histidine-tagged reverse transcriptase Y181I mutant activity by primer extension assay
[2] = Cytotoxicity against human HeLaP4 cells at 200 uM by aqueous nonradioactive cell proliferation assay; format: cell-based; conditions: helap4, 200 µM
[3] = system: PBMC; experiment: Cytotoxicity against human PBMC cells by aqueous nonradioactive cell proliferation assay; format: cell-based
[4] = system: Human immunodeficiency virus 1; experiment: Ratio of EC50 for wild type HIV1 NL4-3 to EC50 for HIV1 NL4-3 harboring reverse transcriptase Y181I, Y188L mutant; format: functional
[5] = system: Human immunodeficiency virus type 1 reverse transcriptase (Human immunodeficiency virus 1), Q72547 [E138K]; experiment: Inhibition of HIV1 histidine-tagged reverse transcriptase E138K mutant activity by primer extension assay
[6] = molecular target: Amine oxidase [flavin-containing] B (Homo sapiens, UniProt P27338); experiment: Inhibition of human MAO-B at up to 10 uM
[7] = molecular target: Muscarinic acetylcholine receptor (Homo sapiens) (UniProt P20309+P08173+P11229+P08172+P08912); experiment: Inhibition of human non-selective muscarinic receptor at up to 10 uM; format: protein assay
[8] = Inhibition of human phosphodiesterase 4
[9] = system: Human immunodeficiency virus 1; experiment: Ratio of EC50 for wild type HIV1 NL4-3 to EC50 for HIV1 NL4-3 harboring reverse transcriptase L100I mutant; format: functional
[10] = system: Human immunodeficiency virus 1; format: functional, organism-based; conditions: NL4-3, HeLaP4
[11] = system: Human immunodeficiency virus type 1 reverse transcriptase (Human immunodeficiency virus 1), Q72547 [K103N]; experiment: Inhibition of HIV1 histidine-tagged reverse transcriptase K103N mutant activity by primer extension assay
[12] = molecular target: D(2) dopamine receptor (Homo sapiens) (UniProt P14416); experiment: Inhibition of human dopamine D2 receptor at up to 10 uM
[13] = species on record: Homo sapiens; experiment: Inhibition of human Phosphodiesterase 3 at up to 10 uM
[14] = species on record: Homo sapiens; experiment: Inhibition of human L-type calcium channel verapamil binding site at up to 10 uM
[15] = system: Human immunodeficiency virus type 1 reverse transcriptase (Human immunodeficiency virus 1), Q72547 [K103N]; experiment: Binding affinity to HIV1 HXB2 reverse transcriptase K103N mutant by protein X-ray crystallography analysis
[16] = system: Human immunodeficiency virus 1; experiment: Antiviral activity against HIV1 NL4-3 harboring reverse transcriptase V108I mutant infected in human HeLaP4 cells assessed as inhibition of viral replication after 5 days by beta-galactosidase reporter assay; format: functional, organism-based
[17] = system: Human immunodeficiency virus 1; experiment: Antiviral activity against HIV1 NL4-3 harboring reverse transcriptase V108I, H221Y, F227F/L, M230M/I mutant infected in human SupT1 cells derived from 11 viral passages with lersivirine assessed as inhibition of viral replication after 21 days relative to drug sensitive HIV1 NL4-3; format: functional, SUP-T1
[18] = molecular target: Adrenergic receptor alpha-1 (Homo sapiens) (UniProt P35348+P25100+P35368); experiment: Inhibition of human adrenergic alpha1 receptor at up to 10 uM
[19] = system: Human immunodeficiency virus 1; format: functional, organism-based; conditions: NL4-3, HeLaP4; remark: listed apart in the source
[20] = Ratio of CC30 for human HeLaP4 cells to EC90 for HIV1
[21] = species on record: Homo sapiens; experiment: Inhibition of human neuronal nicotinic […] receptor at up to 10 uM
[22] = system: Human immunodeficiency virus 1; experiment: Antiviral activity against HIV1 NL4-3 harboring reverse transcriptase Y188C mutant infected in human HeLaP4 cells assessed as inhibition of viral replication after 5 days by beta-galactosidase reporter assay; format: functional, organism-based
[23] = molecular target: Human immunodeficiency virus type 1 reverse transcriptase (Human immunodeficiency virus 1) (UniProt Q72547); experiment: Noncovalent binding affinity to wild type recombinant HIV1 HXB2 reverse transcriptase by protein X-ray crystallography analysis
[24] = molecular target: Opioid receptors; mu/kappa/delta (Homo sapiens) (UniProt P41145+P41143+P35372); experiment: Inhibition of human non-selective opioid receptor at up to 10 uM
[25] = molecular target: Acetylcholinesterase (Homo sapiens) (UniProt P22303); experiment: Inhibition of human acetylcholinesterase at up to 10 uM
[26] = species on record: Homo sapiens; experiment: Inhibition of human L-type calcium channel diltiazem binding site at up to 10 uM
[27] = system: Human immunodeficiency virus type 1 reverse transcriptase (Human immunodeficiency virus 1), Q72547 [V106A]; experiment: Inhibition of HIV1 histidine-tagged reverse transcriptase V106A mutant activity by primer extension assay
[28] = system: Human immunodeficiency virus type 1 reverse transcriptase (Human immunodeficiency virus 1), Q72547 [F227L]; experiment: Inhibition of HIV1 histidine-tagged reverse transcriptase F227L mutant activity by primer extension assay
[29] = system: Human immunodeficiency virus 1; experiment: Antiviral activity against HIV1 NL4-3 harboring reverse transcriptase L100I, K103Q, H221H/Y mutant infected in human SupT1 cells derived from 11 viral passages with efavirenz assessed as inhibition of viral replication after 21 days relative to drug sensitive HIV1 NL4-3; format: functional, SUP-T1
[30] = molecular target: 5-hydroxytryptamine receptor 2A (Homo sapiens) (UniProt P28223); experiment: Inhibition of human 5-HT2A receptor at up to 10 uM
[31] = molecular target: Glutamate [NMDA] receptor (Homo sapiens) (UniProt Q05586+Q12879+Q13224+O15399+O60391+Q14957+Q8TCU5); experiment: Inhibition of human NMDA receptor at up to 10 uM
[32] = system: Human immunodeficiency virus 1; experiment: Antiviral activity against HIV1 NL4-3 harboring reverse transcriptase Y181I mutant infected in human HeLaP4 cells assessed as inhibition of viral replication after 5 days by beta-galactosidase reporter assay; format: functional, organism-based
[33] = system: Human immunodeficiency virus 1; experiment: Antiviral activity against HIV1 NL4-3 harboring reverse transcriptase L100I mutant infected in human HeLaP4 cells assessed as inhibition of viral replication after 5 days by beta-galactosidase reporter assay; format: functional, organism-based
[34] = system: Human immunodeficiency virus type 1 reverse transcriptase (Human immunodeficiency virus 1), Q72547 [M184V]; experiment: Inhibition of HIV1 histidine-tagged reverse transcriptase M184V mutant activity by primer extension assay
[35] = molecular target: Histamine H1 receptor (Homo sapiens) (UniProt P35367); experiment: Inhibition of human histamine H1 receptor at up to 10 uM
[36] = system: Human immunodeficiency virus 1; experiment: Antiviral activity against HIV1 NL4-3 harboring reverse transcriptase P236L mutant infected in human HeLaP4 cells assessed as inhibition of viral replication after 5 days by beta-galactosidase reporter assay; format: functional, organism-based
[37] = molecular target: Human immunodeficiency virus type 1 reverse transcriptase (Human immunodeficiency virus 1, UniProt Q72547); experiment: Mixed non-competitive inhibition of HIV1 reverse transcriptase activity
[38] = system: Human immunodeficiency virus 1; experiment: Antiviral activity against HIV1 NL4-3 harboring reverse transcriptase E233V mutant infected in human HeLaP4 cells assessed as inhibition of viral replication after 5 days by beta-galactosidase reporter assay; format: functional, organism-based
[39] = molecular target: Adrenergic receptor alpha-2 (Homo sapiens) (UniProt P08913+P18825+P18089); experiment: Inhibition of human adrenergic alpha2 receptor at up to 10 uM
[40] = system: Human immunodeficiency virus 1; experiment: Antiviral activity against HIV1 NL4-3 harboring reverse transcriptase K101E mutant infected in human HeLaP4 cells assessed as inhibition of viral replication after 5 days by beta-galactosidase reporter assay; format: functional, organism-based
[41] = Ratio of CC30 for human PBL cells to EC90 for HIV1

Sequence of Opioid receptors; mu/kappa/delta (Homo sapiens) (P35372 whole entry, looked up): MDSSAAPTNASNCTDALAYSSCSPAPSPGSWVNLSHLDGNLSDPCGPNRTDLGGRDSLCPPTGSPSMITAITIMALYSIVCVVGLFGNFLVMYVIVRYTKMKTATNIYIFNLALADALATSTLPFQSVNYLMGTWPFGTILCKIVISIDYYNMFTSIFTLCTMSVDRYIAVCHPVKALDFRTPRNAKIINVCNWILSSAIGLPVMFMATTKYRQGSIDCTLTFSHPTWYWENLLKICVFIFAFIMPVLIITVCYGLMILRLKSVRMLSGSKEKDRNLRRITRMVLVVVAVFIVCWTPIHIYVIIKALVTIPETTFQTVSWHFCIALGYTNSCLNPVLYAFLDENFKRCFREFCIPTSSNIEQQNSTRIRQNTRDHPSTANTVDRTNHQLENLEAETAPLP
Sequence of Opioid receptors; mu/kappa/delta (Homo sapiens) (P41143 whole entry, looked up): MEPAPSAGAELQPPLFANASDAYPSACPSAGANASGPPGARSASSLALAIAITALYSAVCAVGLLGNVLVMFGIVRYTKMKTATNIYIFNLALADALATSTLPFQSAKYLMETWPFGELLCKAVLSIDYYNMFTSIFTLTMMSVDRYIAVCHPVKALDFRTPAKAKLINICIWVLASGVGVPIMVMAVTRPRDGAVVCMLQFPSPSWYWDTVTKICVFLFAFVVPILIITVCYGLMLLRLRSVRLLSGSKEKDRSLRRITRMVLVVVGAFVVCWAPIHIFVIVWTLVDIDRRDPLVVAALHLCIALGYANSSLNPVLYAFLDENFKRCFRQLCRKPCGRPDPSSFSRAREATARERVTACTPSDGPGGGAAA
Sequence of Opioid receptors; mu/kappa/delta (Homo sapiens) (P41145 whole entry, looked up): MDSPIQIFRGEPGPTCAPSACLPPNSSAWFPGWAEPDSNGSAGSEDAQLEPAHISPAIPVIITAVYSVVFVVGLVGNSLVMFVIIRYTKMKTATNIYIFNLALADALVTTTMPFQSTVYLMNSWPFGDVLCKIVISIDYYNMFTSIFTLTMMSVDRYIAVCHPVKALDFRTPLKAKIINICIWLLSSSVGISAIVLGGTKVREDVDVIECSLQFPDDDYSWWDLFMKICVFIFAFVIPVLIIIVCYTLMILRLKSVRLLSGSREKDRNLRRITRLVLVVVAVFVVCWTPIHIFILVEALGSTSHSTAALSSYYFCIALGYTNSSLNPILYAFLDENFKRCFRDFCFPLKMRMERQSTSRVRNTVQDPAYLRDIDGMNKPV
Sequence of D(2) dopamine receptor (Homo sapiens) (P14416 whole entry): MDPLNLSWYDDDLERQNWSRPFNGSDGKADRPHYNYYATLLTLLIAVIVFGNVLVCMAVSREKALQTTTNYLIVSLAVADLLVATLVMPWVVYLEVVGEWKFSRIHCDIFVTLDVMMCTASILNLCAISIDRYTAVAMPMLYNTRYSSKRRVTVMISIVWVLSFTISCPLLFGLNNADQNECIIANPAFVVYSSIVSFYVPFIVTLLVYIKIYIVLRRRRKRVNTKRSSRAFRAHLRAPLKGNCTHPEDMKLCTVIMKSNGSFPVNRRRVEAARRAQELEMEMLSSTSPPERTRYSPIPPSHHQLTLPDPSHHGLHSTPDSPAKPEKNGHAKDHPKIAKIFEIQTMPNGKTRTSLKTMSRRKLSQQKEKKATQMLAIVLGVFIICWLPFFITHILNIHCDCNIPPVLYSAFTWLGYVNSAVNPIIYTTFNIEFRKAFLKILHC
Sequence of Histamine H1 receptor (Homo sapiens) (P35367 whole entry): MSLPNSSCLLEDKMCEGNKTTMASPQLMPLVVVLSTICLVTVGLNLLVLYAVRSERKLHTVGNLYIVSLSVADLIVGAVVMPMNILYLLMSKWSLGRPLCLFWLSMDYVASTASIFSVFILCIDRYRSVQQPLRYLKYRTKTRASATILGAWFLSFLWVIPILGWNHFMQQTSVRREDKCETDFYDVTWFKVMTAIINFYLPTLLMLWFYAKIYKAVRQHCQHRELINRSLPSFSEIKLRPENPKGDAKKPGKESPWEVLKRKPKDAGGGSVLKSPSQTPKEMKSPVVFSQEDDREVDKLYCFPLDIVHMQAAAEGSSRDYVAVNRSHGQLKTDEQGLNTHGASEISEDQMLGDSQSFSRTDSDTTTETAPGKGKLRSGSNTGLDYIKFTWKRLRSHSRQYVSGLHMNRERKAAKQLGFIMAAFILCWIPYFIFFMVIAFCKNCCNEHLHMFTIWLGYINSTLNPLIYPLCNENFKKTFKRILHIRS
Sequence of 5-hydroxytryptamine receptor 2A (Homo sapiens) (P28223 whole entry): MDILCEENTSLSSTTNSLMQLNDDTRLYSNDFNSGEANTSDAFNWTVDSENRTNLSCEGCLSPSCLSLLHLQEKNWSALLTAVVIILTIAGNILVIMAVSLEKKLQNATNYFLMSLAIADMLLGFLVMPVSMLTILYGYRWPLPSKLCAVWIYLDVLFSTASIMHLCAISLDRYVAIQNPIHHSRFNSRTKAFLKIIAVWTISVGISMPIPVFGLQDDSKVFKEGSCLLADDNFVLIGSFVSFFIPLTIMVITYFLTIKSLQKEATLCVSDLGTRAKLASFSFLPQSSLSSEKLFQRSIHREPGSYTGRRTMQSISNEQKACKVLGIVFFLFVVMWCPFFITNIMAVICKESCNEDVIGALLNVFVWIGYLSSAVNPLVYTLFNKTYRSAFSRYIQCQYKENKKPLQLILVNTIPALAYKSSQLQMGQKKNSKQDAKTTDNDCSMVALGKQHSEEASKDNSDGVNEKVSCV
Sequence of Amine oxidase [flavin-containing] B (P27338 whole entry): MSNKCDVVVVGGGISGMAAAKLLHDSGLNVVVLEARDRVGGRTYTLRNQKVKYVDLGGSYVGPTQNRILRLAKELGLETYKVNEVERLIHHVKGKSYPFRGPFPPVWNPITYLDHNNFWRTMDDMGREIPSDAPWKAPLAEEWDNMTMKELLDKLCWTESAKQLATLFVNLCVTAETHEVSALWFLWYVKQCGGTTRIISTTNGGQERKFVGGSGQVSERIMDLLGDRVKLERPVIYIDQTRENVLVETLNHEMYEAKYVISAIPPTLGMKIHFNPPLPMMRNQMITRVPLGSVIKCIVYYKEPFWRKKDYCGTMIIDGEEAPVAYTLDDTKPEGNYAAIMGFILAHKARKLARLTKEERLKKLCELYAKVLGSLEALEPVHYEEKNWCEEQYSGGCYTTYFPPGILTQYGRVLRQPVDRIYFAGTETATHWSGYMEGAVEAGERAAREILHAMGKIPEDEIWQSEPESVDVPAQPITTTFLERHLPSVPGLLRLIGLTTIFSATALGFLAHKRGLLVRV
Sequence of Acetylcholinesterase (Homo sapiens) (P22303 whole entry): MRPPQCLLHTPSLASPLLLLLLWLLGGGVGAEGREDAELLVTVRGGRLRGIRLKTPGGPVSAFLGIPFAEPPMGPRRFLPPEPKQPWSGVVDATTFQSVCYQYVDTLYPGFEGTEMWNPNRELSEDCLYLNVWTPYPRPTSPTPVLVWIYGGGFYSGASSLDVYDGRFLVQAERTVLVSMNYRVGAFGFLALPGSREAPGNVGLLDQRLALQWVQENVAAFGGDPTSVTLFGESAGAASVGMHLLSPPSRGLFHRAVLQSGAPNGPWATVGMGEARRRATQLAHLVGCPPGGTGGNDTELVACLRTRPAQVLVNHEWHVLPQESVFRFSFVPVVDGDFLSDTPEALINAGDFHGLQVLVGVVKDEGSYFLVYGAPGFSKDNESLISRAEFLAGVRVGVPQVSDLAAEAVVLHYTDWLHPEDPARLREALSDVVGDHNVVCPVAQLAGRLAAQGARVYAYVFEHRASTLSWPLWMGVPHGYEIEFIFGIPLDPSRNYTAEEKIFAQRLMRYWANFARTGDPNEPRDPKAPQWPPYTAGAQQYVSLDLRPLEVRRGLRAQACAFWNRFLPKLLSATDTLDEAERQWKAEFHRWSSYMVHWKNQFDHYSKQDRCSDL

CCc1nn(CCO)c(CC)c1Oc1cc(C#N)cc(C#N)c1 [LERSIVIRINE]
Not Active: inhibition (INH) [6]
5: fold change (FC) [29]
117 nM: Ki [37]
9818: Ratio [41]
96900 nM: CC30 [3]
10: Ratio EC50 [9]
Non-toxic: Activity [2]
active: inhibition [1] | inhibition [5] | inhibition [10] | inhibition [11] | Activity [15] | inhibition [16] | inhibition [19] | inhibition [22] | Activity [23] | inhibition [27] | inhibition [28] | inhibition [32] | inhibition [33] | inhibition [34] | inhibition [36] | inhibition [38] | inhibition [40]
3000 nM: IC50 [8]
inactive: inhibition [7] | inhibition [12] | inhibition [13] | inhibition [14] | inhibition [18] | inhibition [21] | inhibition [24] | inhibition [25] | inhibition [26] | inhibition [30] | inhibition [31] | inhibition [35] | inhibition [39]
65: Ratio EC50 [4]
60.5: fold change (FC) [17]
>7092: Ratio [20]

Source: ChEMBL document CHEMBL1687773 (Antimicrob Agents Chemother, 2010)
